Source: patent publication US4605641A, “Synthetic vasoactive intestinal peptide analogs” (Hoffmann-La Roche Inc., priority 1984, dated 1986)
Peptide text beside a SMILES is read from it.

Tested on: guinea pig trachea smooth muscle
Experiment: Bronchodilator (relaxant) effect on isolated guinea pig tracheal rings
Type: cell-based
Details: for Relative Potency: guinea pig trachea, relative to VIP = 100%; for EC50: guinea pig tracheal rings, relaxation as % of maximum response to VIP 10^-6 M, three tissues pooled, linear regression, read-out: EC50 (M), agonist activity, bronchodilator effect
Source text: The bronchodilatory effect of VIP analogs was studied in a model utilizing guinea pig trachea. Wasserman, M. A. et al. "Comparative In Vitro Tracheal Relaxant Effects of Porcine and Hen VIP" in Vasoactive Intestinal Peptide ed. Said, S.I., Raven Press (New York, 1982).
All tissues were taken from male albino guinea pigs weighing 400-600 g, anesthetized with urethane 2 g/kg i.p. After exsanguination the trachea was removed and divided into four ring segments (3 mm length). Each ring was suspended by two 30 guage stainless steel wires in a 10 ml jacket tissue bath and attached via 4-0 silk thread to a Grass force displacement transducer (model FT03C, Grass Instrument Co., Quincy, MA), for isometric recording of tension. The smooth muscle was bathed in modified Krebs solution of the following composition: NaCl, 120 mM; KCl, 4.7 mM; CaCl2, 2.5 mM; MgSO4.7H2 O; 1.2 mM; NaHCO3, 25 mM; KH2 PO4 monobasic, 1.2 mM; and dextrose, 10 mM. Tissue baths were maintained at 37.5° C. and constantly bubbled with 95% O2 and 5% CO2. Responses were recorded on an 8 channel and 4 channel Hewlett-Packard (model 7702B and 7754A, respectively) recorder (Hewlett Packard, Paramus, NJ). Tracheal rings were placed under a resting tension of 1.5 g which was determined to be at or near optimal in preliminary experiments. Frequent readjustments of tension were required during the 60 min. stabilization period which followed. Tissues were rinsed at 15 min. intervals.
Cumulative concentration response curves were obtained for each tissue by successive […] in the bath concentration of VIP or potential VIP agonists according to the method of VanRossum J. M., Arch. Int Pharmacodyn, 143, 299-330 (1963). Only one cummulative dose response curve was obtained on a single piece of tissue. To minimize variability between tissues, relaxant responses are expressed as a percentage of the maximum response obtainable to VIP (10^-6 M=100%) added at the end of the concentration response curve. Responses obtained from three tissues were pooled and EC50 values were determined by linear regression.

Row | Compound | EC50 [M] | Relative Potency [%]
1 | CCCC[C@H](NC(=O)[C@H](CCC(N)=O)NC(=O)[C@H](CCCCN)NC(=O)[C@H](CCCNC(=N)N)NC(=O)[C@H](CC(C)C)NC(=O)[C@H](CCCNC(=N)N)NC(=O)[C@@H](NC(=O)[C@H](Cc1ccc(O)cc1)NC(=O)[C@H](CC(N)=O)NC(=O)[C@H](CC(=O)O)NC(=O)[C@@H](NC(=O)[C@H](Cc1ccccc1)NC(=O)[C@@H](NC(=O)[C@H](C)NC(=O)[C@H](CC(=O)O)NC(=O)[C@H](CO)NC(=O)[C@@H](N)Cc1c[nH]cn1)C(C)C)[C@@H](C)O)[C@@H](C)O)C(=O)N[C@@H](C)C(=O)N[C@H](C(=O)N[C@@H](CCCCN)C(=O)N[C@@H](CCCCN)C(=O)N[C@@H](Cc1ccc(O)cc1)C(=O)N[C@@H](CC(C)C)C(=O)N[C@@H](CC(N)=O)C(=O)N[C@H](C(=O)N[C@H](C(=O)N[C@@H](CC(C)C)C(=O)N[C@@H](CC(N)=O)C(N)=O)[C@@H](C)CC)[C@@H](C)O)C(C)C [(Nle^17, Thr^25)--VIP, (Nle^17, Thr^25)VIP] (HELM PEPTIDE1{H.S.D.A.V.F.T.D.N.Y.T.R.L.R.K.Q.[Nle].A.V.K.K.Y.L.N.T.I.L.N.[am]}$$$$V2.0) | 9.9e-09 | 101
2 | CCCC[C@H](NC(=O)[C@H](CCC(N)=O)NC(=O)[C@H](CCCCN)NC(=O)[C@H](CCCNC(=N)N)NC(=O)[C@H](CC(C)C)NC(=O)[C@H](CCCNC(=N)N)NC(=O)[C@@H](NC(=O)[C@H](Cc1ccc(O)cc1)NC(=O)[C@H](CC(N)=O)NC(=O)[C@H](CC(=O)O)NC(=O)[C@@H](NC(=O)[C@H](Cc1ccccc1)NC(=O)[C@@H](NC(=O)[C@H](C)NC(=O)[C@H](CC(=O)O)NC(=O)[C@H](CO)NC(=O)[C@@H](N)Cc1c[nH]cn1)C(C)C)[C@@H](C)O)[C@@H](C)O)C(=O)N[C@@H](C)C(=O)N[C@H](C(=O)N[C@@H](CCCCN)C(=O)N[C@@H](CCCCN)C(=O)N[C@@H](Cc1ccc(O)cc1)C(=O)N[C@@H](CC(C)C)C(=O)N[C@@H](CC(N)=O)C(=O)N[C@@H](CO)C(=O)N[C@H](C(=O)N[C@@H](CC(C)C)C(=O)N[C@H](C(N)=O)[C@@H](C)O)[C@@H](C)CC)C(C)C [(Nle^17, Thr^28)--VIP, (Nle^17, Thr^28)VIP] (HELM PEPTIDE1{H.S.D.A.V.F.T.D.N.Y.T.R.L.R.K.Q.[Nle].A.V.K.K.Y.L.N.S.I.L.T.[am]}$$$$V2.0) | 9.3e-09 | 108
3 | CCCC[C@H](NC(=O)[C@H](CCC(N)=O)NC(=O)[C@H](CCCCN)NC(=O)[C@H](CCCNC(=N)N)NC(=O)[C@H](CC(C)C)NC(=O)[C@H](CCCNC(=N)N)NC(=O)[C@@H](NC(=O)[C@H](Cc1ccc(O)cc1)NC(=O)[C@H](C)NC(=O)[C@H](CC(=O)O)NC(=O)[C@@H](NC(=O)[C@H](Cc1ccccc1)NC(=O)[C@@H](NC(=O)[C@H](C)NC(=O)[C@H](CC(=O)O)NC(=O)[C@H](CO)NC(=O)[C@@H](N)Cc1c[nH]cn1)C(C)C)[C@@H](C)O)[C@@H](C)O)C(=O)N[C@@H](C)C(=O)N[C@H](C(=O)N[C@@H](CCCCN)C(=O)N[C@@H](CCCCN)C(=O)N[C@@H](Cc1ccc(O)cc1)C(=O)N[C@@H](CC(C)C)C(=O)N[C@@H](CC(N)=O)C(=O)N[C@@H](CO)C(=O)N[C@H](C(=O)N[C@@H](CC(C)C)C(=O)N[C@@H](CC(N)=O)C(N)=O)[C@@H](C)CC)C(C)C [(Ala^9, Nle^17)--VIP, (Ala^9, Nle^17)VIP] (HELM PEPTIDE1{H.S.D.A.V.F.T.D.A.Y.T.R.L.R.K.Q.[Nle].A.V.K.K.Y.L.N.S.I.L.N.[am]}$$$$V2.0) | 1e-08 | 100
4 | CCCC[C@H](NC(=O)[C@H](CCC(N)=O)NC(=O)[C@H](CCCCN)NC(=O)[C@H](CCCNC(=N)N)NC(=O)[C@H](CC(C)C)NC(=O)[C@H](CCCCN)NC(=O)[C@@H](NC(=O)[C@H](Cc1ccc(O)cc1)NC(=O)[C@H](CC(N)=O)NC(=O)[C@H](CC(=O)O)NC(=O)[C@@H](NC(=O)[C@H](Cc1ccccc1)NC(=O)[C@@H](NC(=O)[C@H](C)NC(=O)[C@H](CC(=O)O)NC(=O)[C@H](CO)NC(=O)[C@H](Cc1c[nH]cn1)NC(C)=O)C(C)C)[C@@H](C)O)[C@@H](C)O)C(=O)N[C@@H](C)C(=O)N[C@H](C(=O)N[C@@H](CCCCN)C(=O)N[C@@H](CCCCN)C(=O)N[C@@H](Cc1ccc(O)cc1)C(=O)N[C@@H](CC(C)C)C(=O)N[C@@H](CC(N)=O)C(=O)N[C@@H](CO)C(=O)N[C@H](C(=O)N[C@@H](CC(C)C)C(=O)N[C@@H](CC(N)=O)C(N)=O)[C@@H](C)CC)C(C)C [Ac--(Lys^12, Nle^17)--VIP, Ac-(Lys^12, Nle^17)VIP] (HELM PEPTIDE1{[ac].H.S.D.A.V.F.T.D.N.Y.T.K.L.R.K.Q.[Nle].A.V.K.K.Y.L.N.S.I.L.N.[am]}$$$$V2.0) | 1.5e-08 | 67

Molecules with a lower EC50, results first:

Row | EC50 [M] | Compound | Relative Potency [%]
5 | 8e-09 | CCCC[C@H](NC(=O)[C@H](CCC(N)=O)NC(=O)[C@H](CCCCN)NC(=O)[C@H](CCCNC(=N)N)NC(=O)[C@H](CC(C)C)NC(=O)[C@H](CCCNC(=N)N)NC(=O)[C@@H](NC(=O)[C@H](Cc1ccc(O)cc1)NC(=O)[C@H](CC(N)=O)NC(=O)[C@H](CC(=O)O)NC(=O)[C@@H](NC(=O)[C@H](Cc1ccccc1)NC(=O)[C@@H](NC(=O)[C@H](C)NC(=O)[C@H](CC(=O)O)NC(=O)[C@H](CO)NC(=O)[C@@H](N)Cc1c[nH]cn1)C(C)C)[C@@H](C)O)[C@@H](C)O)C(=O)N[C@@H](C)C(=O)N[C@H](C(=O)N[C@@H](CCCCN)C(=O)N[C@@H](CCCCN)C(=O)N[C@@H](Cc1ccc(O)cc1)C(=O)N[C@@H](CC(C)C)C(=O)N[C@H](C(=O)N[C@@H](CO)C(=O)N[C@H](C(=O)N[C@@H](CC(C)C)C(=O)N[C@@H](CC(N)=O)C(N)=O)[C@@H](C)CC)[C@@H](C)O)C(C)C [(Nle^17, Thr^24)--VIP, (Nle^17, Thr^24)VIP] (HELM PEPTIDE1{H.S.D.A.V.F.T.D.N.Y.T.R.L.R.K.Q.[Nle].A.V.K.K.Y.L.T.S.I.L.N.[am]}$$$$V2.0) | 125
6 | 7e-09 | CCCC[C@H](NC(=O)[C@H](CCC(N)=O)NC(=O)[C@H](CCCCN)NC(=O)[C@H](CCCCN)NC(=O)[C@H](CC(C)C)NC(=O)[C@H](CCCCN)NC(=O)[C@@H](NC(=O)[C@H](Cc1ccc(O)cc1)NC(=O)[C@H](CC(N)=O)NC(=O)[C@H](CC(=O)O)NC(=O)[C@@H](NC(=O)[C@H](Cc1ccccc1)NC(=O)[C@@H](NC(=O)[C@H](C)NC(=O)[C@H](CC(=O)O)NC(=O)[C@H](CO)NC(=O)[C@@H](N)Cc1c[nH]cn1)C(C)C)[C@@H](C)O)[C@@H](C)O)C(=O)N[C@@H](C)C(=O)N[C@H](C(=O)N[C@@H](CCCCN)C(=O)N[C@@H](CCCCN)C(=O)N[C@@H](Cc1ccc(O)cc1)C(=O)N[C@@H](CC(C)C)C(=O)N[C@@H](CC(N)=O)C(=O)N[C@@H](CO)C(=O)N[C@H](C(=O)N[C@@H](CC(C)C)C(=O)N[C@H](C(N)=O)[C@@H](C)O)C(C)C)C(C)C [(Lys^12, Lys^14, Nle^17, Val^26, Thn^28, (Lys^12, Lys^14, Nle^17, Val^26, Thr^28)VIP] (HELM PEPTIDE1{H.S.D.A.V.F.T.D.N.Y.T.K.L.K.K.Q.[Nle].A.V.K.K.Y.L.N.S.V.L.T.[am]}$$$$V2.0) | 143
7 | 3.5e-09 | CCCC[C@H](NC(=O)[C@H](CCC(N)=O)NC(=O)[C@H](CCCCN)NC(=O)[C@H](CCCNC(=N)N)NC(=O)[C@H](CC(C)C)NC(=O)[C@H](CCCCN)NC(=O)[C@@H](NC(=O)[C@H](Cc1ccc(O)cc1)NC(=O)[C@H](CC(N)=O)NC(=O)[C@H](CC(=O)O)NC(=O)[C@@H](NC(=O)[C@H](Cc1ccccc1)NC(=O)[C@@H](NC(=O)[C@H](C)NC(=O)[C@H](CC(=O)O)NC(=O)[C@H](CO)NC(=O)[C@@H](N)Cc1c[nH]cn1)C(C)C)[C@@H](C)O)[C@@H](C)O)C(=O)N[C@@H](C)C(=O)N[C@H](C(=O)N[C@@H](CCCCN)C(=O)N[C@@H](CCCCN)C(=O)N[C@@H](Cc1ccc(O)cc1)C(=O)N[C@@H](CC(C)C)C(=O)N[C@@H](CC(N)=O)C(=O)N[C@@H](CO)C(=O)N[C@H](C(=O)N[C@@H](CC(C)C)C(=O)N[C@H](C(N)=O)[C@@H](C)O)C(C)C)C(C)C [(Lys^12, Nle^17, Val^26, Thr^28)--VIP, (Lys^12, Nle^17, Val^26, Thr^28)VIP] (HELM PEPTIDE1{H.S.D.A.V.F.T.D.N.Y.T.K.L.R.K.Q.[Nle].A.V.K.K.Y.L.N.S.V.L.T.[am]}$$$$V2.0) | 286
